The text below walks through data of publication PMC10604213, “Purification and Characterization of Polyphenol Oxidase in the Fruits of Opuntia ficus-indica” (Biology, 2023).

The subject of experiment [1] is T1, polyphenol oxidase (PPO) from the fruits of Opuntia ficus-indica.
T1 construct: native, from fruit flesh; few SDS-PAGE bands, two prominent: slightly below 35 kDa and slightly above 45 kDa
Briefly: absorbance at […] nm, Lineweaver-Burk. The format is biochemical. Particulars: 0.1 M phosphate buffer.

The test system is the same in experiment [2]. Briefly: absorbance at […] nm, Lineweaver-Burk. The class given is biochemical. Particulars: pH 9.0, 20 °C, 0.1 M Tris-base buffer.

In the case of `Oc1ccccc1O` [catechol], the Km in experiment [1] (pH 7.5, 20 °C) is 6.33 mM.
`Oc1cccc(O)c1O` [pyrogallol]: the Michaelis constant (Km) in experiment [2] was 16.7 mM.
Regarding `Cc1ccc(O)c(O)c1` [4-methyl catechol], the Km in experiment [1] (pH 7.5, 30 °C) stood at 5.38 mM.

Usually Km stands for the substrate concentration at which the rate is half of its maximum.
